Results taken from patent US10383872B2, “Pharmaceutical compositions comprising phenylaminopyrimidine derivative” (priority 2015, dated 2019).
≈ marks a conversion by molar mass, not a printed value.

How the values were obtained:
[1] = Solubility of NRC-AN-019 (aqueous at physiological pH; organic solvents); assay type: physicochemical
Description: Its molecular formula is C25H17F6N5O and its relative molecular mass is 517.44.
It is soluble in dimethylformamide, dimethylacetamide and dimethyl sulfoxide. NRC-AN-019 presents specific difficulties in relation to solubility and its formulation development. Oral absorption of such insoluble drugs is the key point to be considered in solving the problem of low bioavailability.

[2] = Oral gavage pharmacokinetics (suspension) in albino wistar rats; conditions: rat, in vivo, oral gavage 40 mg/kg·bw
Description: FIG. 1 illustrates the area under the curve in albino wistar rats after oral administration of NRC-AN-019 “as is” and different solid dispersions in accordance with the invention.
The study discloses better bioavailability characteristics of NRC-AN-019 in the formulation of the present invention than NRC-AN-019 as such. Thus, the optimum bioavailability can be achieved for the therapeutic effectiveness of NRC-AN-019. The maximum concentration and AUC of the formulation of the present invention are substantially higher than that of NRC-AN-019 “as is” due to better absorption characteristics of the solid dispersion of NRC-AN-019 in amorphous or, partially amorphous or, crystalline form. The details of the process of the invention are provided in the examples given below which is provided by way of illustration only and therefore should not be construed to limit the scope of the invention. The preparation of the present invention that can be administered by the oral route is carried out according to the following process.
NRC-AN-019 active pharmaceutical ingredient (API) and the compositions of the present invention were administered through oral gavage at 40 mg/kg·bw in the form of a suspension in albino wistar rats. […] The Cmax and AUC0-∞ for the compositions of the present invention vary between 900 ng/mL to 2000 ng/mL and 7500 ng·hr/mL to 16000 ng·hr/mL respectively.

In the case of Cc1ccc(NC(=O)c2cc(C(F)(F)F)cc(C(F)(F)F)c2)cc1Nc1nccc(-c2cccnc2)n1 [NRC-AN-019, (3,5-Bis trifluoromethyl)-N-[4-methyl-3-(4-pyridin-3-yl-pyrimidin-2-yl-amino)phenyl]benzamide], the solubility ([1]; aqueous medium at pH 1.2 (buffer not named), pH 1.2, simulated gastric fluid) is reported as 6.6 µg/mL (≈ 12.8 µM), the solubility ([1]; aqueous medium at pH 2.0 (buffer not named), pH 2, simulated gastric fluid) is reported as 0.2 µg/mL (≈ 0.387 µM) and the “solubility in organic solvents” value ([1]; dimethylformamide, dimethylacetamide and dimethyl sulfoxide) is reported as “soluble”. The aqueous solubility ([1]; pH 3.0, 4.0, 5.0, 6.0, 6.8, 7.0, 7.5, 8.0 and water) was “below detection limit”, the solubility in water ([1]; water) was “practically insoluble” and the Cmax [2] was 33.7 ng/mL. The AUC(0-inf) ([2]; read-out: average AUC0-∞) was 453 ng·h/mL.
